Results from US20210045385A1, “PYRIDAZINONE-SUBSTITUTED KETOXIMES AS HERBICIDES” (FMC Corporation, priority 2018, published 2021).

Key:
Format in all cases: in vivo
[1] = test system: Italian ryegrass (Lolium mutiflorum); experiment: Test C preemergence, visual plant response rating; details: Test C, 0 is no effect, 100 is complete control
In short: (§1)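 Visual injury on a 0 (no effect) to 100 (complete control) scale versus untreated controls, scored approximately 10 d after treatment under greenhouse conditions. Treatments used surfactant-containing non-phytotoxic solvent formulations, sprayed onto loam–sand soil preemergence or onto one- to two-leaf plants 2–10 cm tall postemergence.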

[2] = test system: barnyardgrass (Echinochloa crus-galli); experiment: Test C preemergence, visual plant response rating; details: Test C, 0 is no effect, 100 is complete control
In short: as §1

[3] = test system: foxtail, giant (giant foxtail, Setaria faberi); experiment: Test C preemergence, visual plant response rating; details: Test C, 0 is no effect, 100 is complete control
In short: as §1

kochia (Bassia scoparia) [4] = experiment: Test C preemergence, visual plant response rating; details: Test C, 0 is no effect, 100 is complete control
In short: as §1

[5] = test system: pigweed (Amaranthus retroflexus); experiment: Test C preemergence, visual plant response rating; details: Test C, 0 is no effect, 100 is complete control
In short: as §1

[6] = test system: Italian ryegrass (Lolium mutiflorum); experiment: Test C postemergence, visual plant response rating
Text: (§2) Seeds of plant species selected from barnyardgrass (Echinochloa crus-galli), kochia (Bassia scoparia), ragweed (common ragweed, Ambrosia artemisiifolia), Italian ryegrass (Lolium mutiflorum), foxtail, giant (giant foxtail, Setaria faberi), foxtail, green (green foxtail, Setaria viridis), and pigweed (Amaranthus retroflexus) were planted into a blend of loam soil and sand and treated preemergence with a directed soil spray using test chemicals formulated in anon-phytotoxic solvent mixture which included a surfactant.
(§3) At the same time, plants selected from these weed species and also wheat (Triticum aestivum), corn (Zea mays), blackgrass (Alopecurus myosuroides), and galium (catchweed bedstraw, Galium aparine) were planted in pots containing the same blend of loam soil and sand and treated with post emergence applications of test chemicals formulated in the same manner. Plants ranged in height from 2 to 10 cm and were in the one- to two-leaf stage for the postemergence treatment. Treated plants and untreated controls were maintained in a greenhouse for approximately 10 d, after which time all treated plants were compared to untreated controls and visually evaluated for injury. Plant response ratings, summarized in Table C, are based on a 0 to 100 scale where 0 is no effect and 100 is complete control. A dash (-)response means no test result.

[7] = test system: barnyardgrass (Echinochloa crus-galli); experiment: Test C postemergence, visual plant response rating
Text: as §2, §3

[8] = test system: blackgrass (Alopecurus myosuroides); experiment: Test C postemergence, visual plant response rating
Text: as §2, §3

corn (Zea mays) = experiment: Test C postemergence, visual plant response rating
Text: as §2, §3

[9] = test system: foxtail, giant (giant foxtail, Setaria faberi); experiment: Test C postemergence, visual plant response rating
Text: as §2, §3

[10] = test system: galium (catchweed bedstraw, Galium aparine); experiment: Test C postemergence, visual plant response rating
Text: as §2, §3

kochia (Bassia scoparia) [11] = experiment: Test C postemergence, visual plant response rating
Text: as §2, §3

[12] = test system: pigweed (Amaranthus retroflexus); experiment: Test C postemergence, visual plant response rating
Text: as §2, §3

[13] = test system: ragweed (common ragweed, Ambrosia artemisiifolia); experiment: Test C postemergence, visual plant response rating
Text: as §2, §3

[14] = test system: wheat (Triticum aestivum); experiment: Test C postemergence, visual plant response rating
Text: as §2, §3

[15] = test system: barnyardgrass (Echinochloa crus-galli); experiment: Test D flooded paddy test, visual plant response rating; details: 250 g ai/ha, scale 0 to 100 (0 no effect, 100 complete control), 13 to 15 d
In short: (§4)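 Visual injury scores, 0 (no effect) to 100 (complete control), were assigned after 13 to 15 d in the greenhouse by comparison with controls. Test compounds had been added to paddy water covering soil by 3 cm at the 2-leaf stage.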

[16] = test system: duck salad (Heteranthera limosa); experiment: as above; details: 250 g ai/ha, scale 0 to 100 (0 no effect, 100 complete control), 13 to 15 d
In short: as §4

rice (Oryza sativa) = experiment: as above; details: 250 g ai/ha, scale 0 to 100 (0 no effect, 100 complete control), 13 to 15 d
In short: as §4

[17] = test system: sedge umbrella (small-flower umbrella sedge, Cyperus difformis); experiment: as above; details: 250 g ai/ha, scale 0 to 100 (0 no effect, 100 complete control), 13 to 15 d
In short: as §4

[18] = Test C, postemergence, 125 g ai/ha

Structure (SMILES)	Ryegrass, Italian plant response rating (0 to 100 scale) ([1]; 125 g ai/ha)	Barnyardgrass plant response rating (0 to 100 scale) ([2]; 31 g ai/ha)	Barnyardgrass plant response rating (0 to 100 scale) ([2]; 125 g ai/ha)	Foxtail, Giant plant response rating (0 to 100 scale) ([3]; 31 g ai/ha)	Foxtail, Giant plant response rating (0 to 100 scale) ([3]; 125 g ai/ha)	Kochia plant response rating (0 to 100 scale) (kochia (Bassia scoparia) [4]; 125 g ai/ha)	Pigweed plant response rating (0 to 100 scale) ([5]; 31 g ai/ha)	Pigweed plant response rating (0 to 100 scale) ([5]; 125 g ai/ha)	Ryegrass, Italian plant response rating (0 to 100 scale) ([6]; Postemergence, 31 g ai/ha)	Ryegrass, Italian plant response rating (0 to 100 scale) [6, 18]	Barnyardgrass plant response rating (0 to 100 scale) ([7]; Postemergence, 31 g ai/ha)	Barnyardgrass plant response rating (0 to 100 scale) [7, 18]	Blackgrass plant response rating (0 to 100 scale) ([8]; Postemergence, 31 g ai/ha)	Blackgrass plant response rating (0 to 100 scale) [8, 18]	Corn plant response rating (0 to 100 scale) (corn (Zea mays); Postemergence, 31 g ai/ha)	Corn plant response rating (0 to 100 scale) (corn (Zea mays); [18])	Foxtail, Giant plant response rating (0 to 100 scale) ([9]; Postemergence, 31 g ai/ha)	Foxtail, Giant plant response rating (0 to 100 scale) [9, 18]	Galium plant response rating (0 to 100 scale) ([10]; Postemergence, 31 g ai/ha)	Galium plant response rating (0 to 100 scale) [10, 18]	other results
C#CCO/N=C(/c1c(O)c(Cl)nn(C)c1=O)c1ccc(F)c2ccccc12 [Compound 205]	100	70	100	80	100	70	80	100	70	100	70	90	20	80	0	40	80	100	80	90	Ryegrass, Italian plant response rating (0 to 100 scale) ([1]; 31 g ai/ha): 20; Kochia plant response rating (0 to 100 scale) (kochia (Bassia scoparia) [4]; 31 g ai/ha): 0; Kochia plant response rating (0 to 100 scale) (kochia (Bassia scoparia) [11]; Postemergence, 31 g ai/ha): 60; Kochia plant response rating (0 to 100 scale) (kochia (Bassia scoparia) [11]; [18]): 70; Pigweed plant response rating (0 to 100 scale) ([12]; Postemergence, 31 g ai/ha): 90; Pigweed plant response rating (0 to 100 scale) [12, 18]: 100; Ragweed plant response rating (0 to 100 scale) ([13]; Postemergence, 31 g ai/ha): 100; Ragweed plant response rating (0 to 100 scale) [13, 18]: 100; Wheat plant response rating (0 to 100 scale) ([14]; Postemergence, 31 g ai/ha): 20; Wheat plant response rating (0 to 100 scale) [14, 18]: 70; Plant response rating, Barnyardgrass (Flood) [15]: 0; Plant response rating, Ducksalad (Flood) [16]: 0; Plant response rating, Rice (Flood) (rice (Oryza sativa)): 0; Plant response rating, Sedge, Umbrella (Flood) [17]: 0
CO/N=C(/c1c(O)c(Cl)nn(C)c1=O)c1ccc(F)c2ccccc12 [Compound 207]	80	20	80	30	90	60	50	80	20	80	20	60	30	20	30	10	30	70	90	100	Ryegrass, Italian plant response rating (0 to 100 scale) ([1]; 31 g ai/ha): 40; Kochia plant response rating (0 to 100 scale) (kochia (Bassia scoparia) [4]; 31 g ai/ha): 0; Kochia plant response rating (0 to 100 scale) (kochia (Bassia scoparia) [11]; Postemergence, 31 g ai/ha): 60; Kochia plant response rating (0 to 100 scale) (kochia (Bassia scoparia) [11]; [18]): 70; Pigweed plant response rating (0 to 100 scale) ([12]; Postemergence, 31 g ai/ha): 50; Pigweed plant response rating (0 to 100 scale) [12, 18]: 80; Ragweed plant response rating (0 to 100 scale) ([13]; Postemergence, 31 g ai/ha): 30; Ragweed plant response rating (0 to 100 scale) [13, 18]: 90; Wheat plant response rating (0 to 100 scale) ([14]; Postemergence, 31 g ai/ha): 0; Wheat plant response rating (0 to 100 scale) [14, 18]: 0; Plant response rating, Barnyardgrass (Flood) [15]: 0; Plant response rating, Ducksalad (Flood) [16]: 0; Plant response rating, Rice (Flood) (rice (Oryza sativa)): 0; Plant response rating, Sedge, Umbrella (Flood) [17]: 0
C#CCO/N=C(\c1c(O)c(Cl)nn(C)c1=O)c1ccc(F)c2ccccc12 [Compound 220]	100	0	90	20	100	60	30	100	70	100	40	80	30	80	10	40	60	100	70	100	Ryegrass, Italian plant response rating (0 to 100 scale) ([1]; 31 g ai/ha): 30; Kochia plant response rating (0 to 100 scale) (kochia (Bassia scoparia) [4]; 31 g ai/ha): 0; Kochia plant response rating (0 to 100 scale) (kochia (Bassia scoparia) [11]; Postemergence, 31 g ai/ha): 50; Kochia plant response rating (0 to 100 scale) (kochia (Bassia scoparia) [11]; [18]): 80; Pigweed plant response rating (0 to 100 scale) ([12]; Postemergence, 31 g ai/ha): 80; Pigweed plant response rating (0 to 100 scale) [12, 18]: 100; Ragweed plant response rating (0 to 100 scale) ([13]; Postemergence, 31 g ai/ha): 60; Ragweed plant response rating (0 to 100 scale) [13, 18]: 100; Wheat plant response rating (0 to 100 scale) ([14]; Postemergence, 31 g ai/ha): 40; Wheat plant response rating (0 to 100 scale) [14, 18]: 90; Plant response rating, Barnyardgrass (Flood) [15]: 0; Plant response rating, Ducksalad (Flood) [16]: 0; Plant response rating, Rice (Flood) (rice (Oryza sativa)): 0; Plant response rating, Sedge, Umbrella (Flood) [17]: 0
CO/N=C(\c1c(OC(C)=O)c(Cl)nn(C)c1=O)c1cc(Br)cc2ccccc12 [Compound 231]	0	60	90	30	90	0	40	50	0	10	30	70	10	20	0	20	30	70	70	100	Kochia plant response rating (0 to 100 scale) (kochia (Bassia scoparia) [11]; Postemergence, 31 g ai/ha): 10; Kochia plant response rating (0 to 100 scale) (kochia (Bassia scoparia) [11]; [18]): 20; Pigweed plant response rating (0 to 100 scale) ([12]; Postemergence, 31 g ai/ha): 20; Pigweed plant response rating (0 to 100 scale) [12, 18]: 60; Ragweed plant response rating (0 to 100 scale) ([13]; Postemergence, 31 g ai/ha): 100; Ragweed plant response rating (0 to 100 scale) [13, 18]: 100; Wheat plant response rating (0 to 100 scale) ([14]; Postemergence, 31 g ai/ha): 0; Wheat plant response rating (0 to 100 scale) [14, 18]: 0; Plant response rating, Barnyardgrass (Flood) [15]: 15; Plant response rating, Ducksalad (Flood) [16]: 75; Plant response rating, Rice (Flood) (rice (Oryza sativa)): 0; Plant response rating, Sedge, Umbrella (Flood) [17]: 30
